Measurements published in article PMC10258794, “To Fold or Not to Fold: Diastereomeric Optimization of an α-Helical Antimicrobial Peptide” (Journal of Medicinal Chemistry, 2023).
Converted amounts (≈) assume the structure as drawn. Where two headings read alike, the source gives them in different places.

Assays:
S. aureus Newman [1] = test: microbe, parasite or virus in culture; conditions: Staphylococcus aureus, pH 7.4, read-out: MIC S. aureus Newman
Staphylococcus epidermis = test: MIC broth microdilution, Staphylococcus epidermis; type: cell-based
In short: (§1)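 Growth inhibition is judged by eye after MTT addition, the MIC being the lowest compound concentration whose well stays yellow. Bacteria from overnight LB cultures are diluted in MH medium at pH 7.4 to roughly 5 × 10^5 CFU and incubated with doubling dilutions at 37 °C, unshaken, 16–20 h.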

[2] = 24 h, […] human serum in TRIS buffer pH 7.4, 37 °C
Description: Human serum was diluted in 0.1 M filtered TRIS buffer (pH 7.4) (25%, 1:3, v/v). Selected peptides were diluted in 0.1 M filtered TRIS buffer (pH 7.4) to a concentration of 400 μM, and 0.1 mg/mL 4- hydroxybenzoic acid was added as an internal standard. Aliquots of peptide solution (50 μL) were added to aliquots of serum (50 μL) in sterile Eppendorf tubes, to reach a peptide concentration of 200 μM during the assay. Samples were incubated at 37 °C under gentle stirring (350 rpm). Different samples (triplicates) were quenched at different time points (0/1/6/12/24 h) by precipitating serum proteins through the addition of ZnSO4·7 H2O/ACN (1:1) (0.1 M, 100 μL) and cooling in ice bath for 10 min. Protein precipitates were pelleted under centrifugation, and supernatants were then sampled and analyzed by LC–MS. Experiment controls included two references, one known to be degraded and one known to be undegraded. Peaks corresponding to the internal standard and the undegraded peptides were integrated, with the ratio peptide/standard at t = 0 h as 100%.

S. aureus Newman [3] = tested on: S. aureus Newman
A. baumannii ATCC19606 = conditions: MH broth pH 7.4, 16–20 h, 37 °C
In short: as §1

E. coli W3110 = conditions: MH broth pH 7.4, 16–20 h, 37 °C
In short: as §1

K. pneumoniae NCTC418 = tested on: K. pneumoniae NCTC418
In short: as §1

[4] = tested on: Pseudomonas aeruginosa, Klebsiella pneumoniae, Acinetobacter baumannii, Escherichia coli, and methicillin-resistant Staphylococcus aureus; conditions: summary of Table 1
In short: as §1

S. aureus COL MRSA = tested on: S. aureus COL MRSA
In short: as §1

P. aeruginosa PAO1 [5] = tested on: P. aeruginosa PAO1
In short: as §1

P. aeruginosa PAO1 [6] = test: Time-killing kinetic assay; type: cell-based, Pseudomonas aeruginosa; conditions: P. aeruginosa PAO1, 4 × MIC, pH 7.4
Description: A single colony of P. aeruginosa PAO1 was picked and grown overnight with shaking (180 rpm) in LB (Sigma-Aldrich, Buchs, Switzerland) medium 5 mL overnight at 37 °C. The overnight bacterial culture was diluted to OD600 0.002 (2 × 10^6 CFU/mL) in fresh MH medium. Stock solutions of AMPs in sterilized milliQ water were prepared in 1 mg/mL and were diluted to two times more than required concentration in fresh MH (Sigma-Aldrich, Buchs, Switzerland) medium at pH 7.4. 100 μL of prepared bacteria solution in MH and 100 μL of samples in MH were mixed in a 96-well microtiter plate (TPP, untreated, Corning Incorporated, Kennebunk, USA). Untreated bacteria at 1 × 10^6 CFU/mL were used as a growth control. 96-well microtiter plates were incubated in 37 °C with shaking (180 rpm). Surviving bacteria were quantified at 0, 0.5, 1, 2, 3, 4, 5, and 6 h by plating 10-fold dilutions of the sample in sterilized normal saline on LB agar plates. LB agar plates were incubated at 37 °C for 10 h, and the number of individual colonies was counted at each timepoint. The assay was performed in triplicate in the biosafety level 2 lab.

A549 cells = test: Alamar blue cytotoxicity, A549; type: cell-based, human; conditions: 24 h, mean ± SD, n = 3, read-out: Toxicity on A549 lung cancern cells
In short: (§2)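 Viability read by AlamarBlue fluorescence (560/590 nm) after 3–5 h with 10% reagent, relative to untreated controls. Beforehand, cells got rising compound doses for 24 h at 37 °C; seeding was 8000/well for A549 in RPMI-1640 and 4000/well for HEK293 in DMEM.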

K. pneumoniae Oxa-48 = test: MIC broth microdilution, K. pneumoniae Oxa-48; type: cell-based, Klebsiella pneumoniae; conditions: MDR strain; MH broth pH 7.4, 16–20 h, 37 °C
In short: as §1

PA14 4.18 (pmrB) = test: microbe, parasite or virus in culture; conditions: supplementary CSV
In short: as §1

PA14 2P4 (pmrB) = test: microbe, parasite or virus in culture; conditions: supplementary CSV
In short: as §1

P. aeruginosa ZEM-1A = test: microbe, parasite or virus in culture; conditions: pH 7.4
In short: as §1

PA14 4.13 (phoQ) = test: microbe, parasite or virus in culture; conditions: supplementary CSV
In short: as §1

Burkolderia cenocepacia = test: microbe, parasite or virus in culture
Enterobacter cloacae = test: microbe, parasite or virus in culture; conditions: pH 7.4
In short: as §1

P. aeruginosa PA14 = test: microbe, parasite or virus in culture
In short: as §1

[7] = tested on: Stenotrophomonas maltophilia; test: microbe, parasite or virus in culture; type: cell-based; conditions: pH 7.4
In short: as §1

HEK293 cells = test: Alamar blue cytotoxicity, HEK293; type: cell-based, human; conditions: 24 h, mean ± SD, n = 3, read-out: Toxicity on HEK293 cells
In short: as §2

P. aeruginosa ZEM9A = test: microbe, parasite or virus in culture; type: cell-based, Pseudomonas aeruginosa; conditions: pH 7.4
In short: as §1

[8] = MH broth pH 7.4, 16–20 h, 37 °C
[9] = supplementary CSV, ranges of Table 1 given as one number

Compound: CN[C@H](CC(C)C)C(=O)N[C@H]1C(=O)N[C@@H](CC(N)=O)C(=O)N[C@H]2C(=O)N[C@H]3C(=O)N[C@H](C(=O)N[C@H](C(=O)O)c4cc(O)cc(O)c4-c4cc3ccc4O)[C@H](O)c3ccc(c(Cl)c3)Oc3cc2cc(c3O[C@@H]2O[C@H](CO)[C@@H](O)[C@H](O)[C@H]2O[C@H]2C[C@](C)(N)[C@H](O)[C@H](C)O2)Oc2ccc(cc2Cl)[C@H]1O [Vancomycin, vancomycin, reference compound]
- MIC (S. aureus Newman [1]): 0.5 µg/mL (≈ 0.345 µM)
- MIC (Staphylococcus epidermis; Staphylococcus, pH 7.4, read-out: MIC Staphylococcus epidermis): 0.5 µg/mL (≈ 0.345 µM)

Compound: CC(C)C[C@H](NC(=O)[C@H](CCCCN)NC(=O)[C@H](N)CCCCN)C(=O)N[C@@H](CC(C)C)C(=O)N[C@@H](CCCCN)C(=O)N[C@@H](CC(C)C)C(=O)N[C@@H](CC(C)C)C(=O)N[C@@H](CCCCN)C(=O)N[C@@H](CC(C)C)C(=O)N[C@@H](CC(C)C)C(=O)N[C@H](CC(C)C)C(N)=O [HP5]
- serum stability [2]: entirely stabilize
- MIC S. aureus Newman (S. aureus Newman [3]; [8]): 2 µg/mL (≈ 1.51 µM)
- MIC S. aureus Newmann (S. aureus Newman [3]; supplementary CSV): 2 µg/mL (≈ 1.51 µM)
- MIC A. baumannii ATCC19606 (A. baumannii ATCC19606): 0.5 µg/mL (≈ 0.378 µM)
- MIC E. coli W3110 (E. coli W3110): 0.5 µg/mL (≈ 0.378 µM)
- MIC K. pneumoniae NCTC418 (K. pneumoniae NCTC418; [8]): 2 µg/mL (≈ 1.51 µM)
- MIC K. pneumoniae NCTC418 (K. pneumoniae NCTC418; [9]): 2 µg/mL (≈ 1.51 µM)
- MIC, span over the five bacterial strains [4]: 0.5 to 4 µg/mL
- MIC S. aureus COL MRSA (S. aureus COL MRSA; [8]): 2 µg/mL (≈ 1.51 µM)
- MIC S. aureus COL (S. aureus COL MRSA; [9]): 2 µg/mL (≈ 1.51 µM)
- MIC P. aeruginosa PAO1 (P. aeruginosa PAO1 [5]; [8]): 2 µg/mL (≈ 1.51 µM)
- MIC P. aeruginosa PAO1 (P. aeruginosa PAO1 [5]; [9]): 2 µg/mL (≈ 1.51 µM)
- time to complete killing of bacteria (P. aeruginosa PAO1 [6]): ≤ 1 h
- IC50 (A549 cells): 18.9 ± 3.6 µM
- MIC Staphylococcus epidermis (Staphylococcus epidermis; pH 7.4): 2 µg/mL (≈ 1.51 µM)
- MIC K. pneumoniae Oxa-48 (K. pneumoniae Oxa-48): 2 µg/mL (≈ 1.51 µM)
- MIC P. aeruginosa PA14 4.18 (PA14 4.18 (pmrB)): 16 µg/mL (≈ 12.1 µM)
- MIC P. aeruginosaPA14 2P4 (PA14 2P4 (pmrB)): 32 µg/mL (≈ 24.2 µM)
- MIC ZEM-1A (P. aeruginosa ZEM-1A): 2 µg/mL (≈ 1.51 µM)
- MIC P. aeruginosa PA14 4.13 (PA14 4.13 (phoQ)): 4 µg/mL (≈ 3.03 µM)
- MIC Burkolderia cenocepacia (Burkolderia cenocepacia; MDR strain, MH broth pH 7.4, 16–20 h, 37 °C): >64 µg/mL
- MIC B. cenocepacia (Burkolderia cenocepacia; supplementary CSV): > 64 µg/mL
- MIC Enterobacter cloacae (Enterobacter cloacae): 2 µg/mL (≈ 1.51 µM)
- MIC PA14 (P. aeruginosa PA14; [8]): 2 µg/mL (≈ 1.51 µM)
- MIC P. aeruginosa PA14 (P. aeruginosa PA14; supplementary CSV): 2 µg/mL (≈ 1.51 µM)
- MIC Stenotrophomonas maltophilia [7]: 2 µg/mL (≈ 1.51 µM)
- IC50 (HEK293 cells): 93.2 ± 0.1 µM
- MIC ZEM9A (P. aeruginosa ZEM9A): 4 µg/mL (≈ 3.03 µM)
